Measured values published in patent US12473533B2, “Gene targets for T-cell-based immunotherapy” (The Regents of the University of California, priority 2018, dated 2025).

System: CD8+ T cells
Assay: Dose titration of CGS-21680 on T cell proliferation (CFSE)
Format: cell-based, human
Settings: CFSE-labeled CD8+ T cells, two donors
Description: FIG. 12A-E. Screen for Resistance to an Immunosuppressive Signal in Primary T Cells Using SLICE, Related to FIG. 6. Section A: a dose titration of adenosine receptor agonist CGS-21680 for the optimal effects on T cell proliferation inhibition identified 20 μM as sufficiently suppressive. Shown are representative CFSE profiles for varying concentrations of CGS-21680, as labeled at the top of each panel. Data is for CFSE-labeled CD8^+ T cells from two human donors. Section C: Comparison of the overlapping top 25 hits for the two screen conditions (CGS-21680 and vehicle). We noted that while many hits from the vehicle screen also boosted proliferation in the presence of the immunosuppressive adenosine agonist (trending along diagonal), ADORA2A and FAM105A sgRNAs were enriched selectively in the setting of the adenosine agonist. ADORA2A and FAM105A were the only hits in the top 0.1% by LFC in the CGS-21680 treated condition and also in the top 0.1% by LFC difference between the CGS-21680 and the vehicle GW screen conditions. Section D: Paralogs FAM105A and OTULIN (FAM105B) are 40% homologous and are encoded at neighboring sites on chromosome 5. […] A non-synonymous single nucleotide polymorphism (SNP) in FAM105A has been linked to allergic disease by genome wide association studies (Ferreira et al., 2017). […]

CCNC(=O)[C@H]1O[C@@H](n2cnc3c(N)nc(NCCc4ccc(CCC(=O)O)cc4)nc32)[C@H](O)[C@@H]1O [CGS-21680]
concentration sufficiently suppressive of T cell proliferation: 20 µM
